What was measured:
[1] = molecular target: T1, αvβ3 receptor (purified from human placenta) (Homo sapiens, UniProt P05106+P06756); test: competition radioligand binding assay, 125I-echistatin to αvβ3 receptor; details: αvβ3, inhibition of specific 125I-echistatin binding
T1 construct: αvβ3 receptor (purified from human placenta); from tissue; host or cells: human placenta
Protocol: The following assay procedure, which is a competition radioligand binding assay, was carried out to determine the activity of the foregoing compounds as αvβ3 antagonists. The competitive assay procedure described in Kumar, et. al., "Biochemical Characterization Of The Binding Of Echistatin To Integrin αvβ3 Receptor", Journal Of Pharmacology And Experimental Therapeutics, Vol. 283, No. 2, pp. 843-853 (1997) was employed. Thus, binding of ^125I-echistatin (radiolabeled by the chloramine-T method to a specific activity of 2000 Ci/mmol (Amersham, Chicago, Il.)) to αvβ3 receptor (purified from human placenta), both prepared as described in Kumar, et al., was competed by the compounds prepared in the foregoing examples. Purified αvβ3 receptor was coated onto Microlite-2 plates at a concentration of 50 ng/well. ^125I-echistatin was added to the wells to a final concentration of 0.05 nM in binding buffer (50 µl/well) in the presence of the competing test compound. The competing test compounds were employed at serially diluted concentrations ranging from 1 pM to 100 nM. After a 3 hour incubation at room temperature, the wells were washed, and radioactivity, reflecting binding by ^125 I-echistatin to αvβ3 receptors, was determined with Top Count (Packard). Each data point is an average of values from triplicate wells.
Specific binding of ^125I-echistatin was calculated as the difference between the amount of ^125I-echistatin bound in the absence (total binding) and the amount of ^125I-echistatin bound in the presence of a 200-fold molar excess of unlabeled echistatin (nonspecific binding). The efficacy of the test compounds for inhibiting specific binding of ^125I-echistatin to αvβ3 receptors was determined by plotting a graph of specific binding (y-axis) as a function of test compound concentration (x-axis). The concentration of test compound required to inhibit 50% of the specific binding (IC50) was determined from the plot. The IC50 may be directly converted mathematically to Ki, which is a measure of the receptor binding affinity of the compounds under the defined assay conditions.

purified αllbβ3 receptor = purified αllbβ3 receptor (Homo sapiens, UniProt P05106+P08514); test: similar competitive binding assay with 125I-echistatin on αllbβ3 receptor, used for the specificity index; details: specificity index IC50 αllbβ3/ IC50 αvβ3; for Specificity αIIβ3 / αvβ3: Table 14; for Specificity α11bβ3 / αvβ3: Table 13
Protocol: To measure the relative affinity of the test compounds for αvβ3 receptors versus affinity for αllbβ3 receptors, similar competitive assays were carried out using purified αllbβ3 receptor and ^125I-echistatin (iodinated using the lactoperoxidase method). The specificity index, which is a measure of the relative binding affinity for αvβ3, versus αllbβ3, may be determined by dividing the IC50 value for αllbβ3 by the IC50 value for αvβ3.

| Structure (SMILES) | IC50 ([1]; Table 10) | SPECIFICITY αIIbβ3 / αvβ3 (purified αllbβ3 receptor; Table 10) | other results |
| --- | --- | --- | --- |
| Cn1c(CN(Cc2ccc(C(=O)NC[C@H](NC(=O)OCc3ccccc3)C(=O)O)cc2)C(=O)NC2CCCCC2)nc2ccccc21 [Example 5-92] |  |  | IC50 ([1]; Table 16): 7.6 nM; Specificity αllbβ3 / αvβ3 (purified αllbβ3 receptor; Table 16): 174 |
| CC(C)(C)OC(=O)N[C@@H](CNC(=O)c1ccc(CN(Cc2nc3ccccc3[nH]2)C(=O)CCc2ccccc2)cc1)C(=O)O [Example 5-63] |  |  | IC50 ([1]; Table 12): 20 nM; Specificity αllbβ3 / αvβ3 (purified αllbβ3 receptor; Table 12): 293 |
| COCCC(=O)N(Cc1ccc(C(=O)NC[C@H](NC(=O)OCc2ccccc2)C(=O)O)cc1)Cc1nc2ccccc2[nH]1 [Example 5-25] | 4.5 nM | 52 |  |
| COCCNC(=S)N(Cc1ccc(C(=O)NC[C@H](NC(=O)OCc2ccccc2)C(=O)O)cc1)Cc1nc2ccccc2[nH]1 [Example 5-56] | 1.6 nM | 514 |  |
| O=C(N[C@@H](CNC(=O)c1ccc(CN(Cc2nc3ccccc3[nH]2)C(=O)Nc2ccc(F)cc2)cc1)C(=O)O)OCc1ccccc1 [Example 5-49] | 4.2 nM | 504 |  |
| CCOC(=O)CCNC(=O)N(Cc1ccc(C(=O)NC[C@H](NC(=O)OCc2ccccc2)C(=O)O)cc1)Cc1nc2ccccc2[nH]1 [Example 5-54] | 2 nM | 413 |  |
| COCC(=O)N(Cc1ccc(C(=O)NC[C@H](NC(=O)OC(C)(C)C)C(=O)O)cc1)Cc1nc2ccccc2[nH]1 [Example 5-62] |  |  | IC50 ([1]; Table 12): 30 nM; Specificity αllbβ3 / αvβ3 (purified αllbβ3 receptor; Table 12): 419 |
| O=C(N[C@H](CNC(=O)c1ccc(CNCc2nc3ccccc3[nH]2)cc1)C(=O)O)OCc1ccccc1 [Example 5-57] |  |  | IC50 ([1]; Table 11): 1290 nM; Specificity αllbβ3 / αvβ3 (purified αllbβ3 receptor; Table 11): 1.43 |
| O=C(NC(CNC(=O)c1ccc(CN(CCc2nc3ccccc3[nH]2)C(=O)CCC2CCCC2)cc1)C(=O)O)OCc1ccccc1 (stereo not shown) [Example 5-74] |  |  | IC50 ([1]; Table 14): 238 nM; Specificity αIIβ3 / αvβ3 (purified αllbβ3 receptor): 0.6 |
| O=C(N[C@@H](CNC(=O)c1ccc(CN(Cc2nc3ccccc3[nH]2)C(=O)NC2CCCCC2)cc1)C(=O)O)OCc1ccccc1 [Example 5-28] | 0.65 nM | 1136 |  |
| COCC(=O)N(Cc1ccc(C(=O)NC[C@@H](NC(=O)OCc2ccccc2)C(=O)O)cc1)Cc1nc2ccccc2[nH]1 [Example 5-58] |  |  | IC50 ([1]; Table 11): 118 nM; Specificity αllbβ3 / αvβ3 (purified αllbβ3 receptor; Table 11): 46 |
| O=C(NC(CNC(=O)c1ccc(CNCCc2nc3ccccc3[nH]2)cc1)C(=O)O)OCc1ccccc1 (stereo not shown) [Example 5-70] |  |  | IC50 ([1]; Table 14): 413 nM; Specificity αIIβ3 / αvβ3 (purified αllbβ3 receptor): 0.2 |
| COc1ccc(NC(=S)N(Cc2ccc(C(=O)NC[C@H](NC(=O)OCc3ccccc3)C(=O)O)cc2)Cc2nc3ccccc3[nH]2)cc1 [Example 5-46] | 2.7 nM | 1065 |  |
| CN(Cc1ccc(C(=O)NC[C@H](NC(=O)OCc2ccccc2)C(=O)O)cc1)Cc1nc2ccccc2[nH]1 [Example 5-33] | 17 nM | 128 |  |
| COc1ccc(OC(=O)N(Cc2ccc(C(=O)NC[C@H](NC(=O)OCc3ccccc3)C(=O)O)cc2)Cc2nc3ccccc3[nH]2)cc1 [Example 5-21] | 4.4 nM | 41 |  |
| CCOC(=O)CCC(=O)N(Cc1ccc(C(=O)NC[C@H](NC(=O)OCc2ccccc2)C(=O)O)cc1)Cc1nc2ccccc2[nH]1 [Example 5-17] | 4.6 nM | 76 |  |
| CC(=O)N(Cc1ccc(C(=O)NC[C@H](NC(=O)OC(C)(C)C)C(=O)O)cc1)Cc1nc2ccccc2[nH]1 [Example 5-61] |  |  | IC50 ([1]; Table 12): 17 nM; Specificity αllbβ3 / αvβ3 (purified αllbβ3 receptor; Table 12): 324 |
| O=C(N[C@@H](CNC(=O)c1ccc(CN(Cc2nc3ccccc3[nH]2)C(=O)C2CCCCC2)cc1)C(=O)O)OCc1ccccc1 [Example 5-15] | 4.3 nM | 95 |  |
| CCCCOC(=O)N[C@@H](CNC(=O)c1ccc(CN(Cc2nc3ccccc3[nH]2)C(=O)Nc2ccc(C(=O)OCC)cc2)cc1)C(=O)O [Example 5-91] |  |  | IC50 ([1]; Table 16): 2.8 nM; Specificity αllbβ3 / αvβ3 (purified αllbβ3 receptor; Table 16): 1183 |

| Structure (SMILES) | IC50 ([1]; Table 10) | SPECIFICITY αIIbβ3 / αvβ3 (purified αllbβ3 receptor; Table 10) | other results |
| --- | --- | --- | --- |
| CC(=O)OC(C(=O)N(Cc1ccc(C(=O)NC[C@H](NC(=O)OCc2ccccc2)C(=O)O)cc1)Cc1nc2ccccc2[nH]1)c1ccccc1 (stereo partly shown) [Example 5-18] | 4.4 nM | 82 |  |
| O=C(O)CC(NC(=O)c1ccc(CN(Cc2nc3ccccc3[nH]2)C(=O)CCC2CCCC2)cc1)c1ccccc1 (stereo not shown) [Example 5-69] |  |  | IC50 ([1]; Table 13): 10500 nM; Specificity α11bβ3 / αvβ3 (purified αllbβ3 receptor): 0.4 |
| O=C(N[C@H](CNC(=O)c1ccc(CN(Cc2nc3ccccc3[nH]2)C(=O)CCc2ccccc2)cc1)C(=O)O)OCc1ccccc1 [Example 5-59] |  |  | IC50 ([1]; Table 11): 129 nM; Specificity αllbβ3 / αvβ3 (purified αllbβ3 receptor; Table 11): 65 |
| COCC(=O)N(Cc1ccc(C(=O)NC(CC(=O)O)c2ccccc2)cc1)Cc1nc2ccccc2[nH]1 (stereo not shown) [Example 5-67] |  |  | IC50 ([1]; Table 13): 7370 nM; Specificity α11bβ3 / αvβ3 (purified αllbβ3 receptor): 0.5 |
| O=C(N[C@@H](CNC(=O)c1ccc(CN(Cc2nc3cc(Cl)ccc3[nH]2)C(=O)NC2CCCCC2)cc1)C(=O)O)OCc1ccccc1 [Example 5-94] |  |  | IC50 ([1]; Table 16): 3.8 nM; Specificity αllbβ3 / αvβ3 (purified αllbβ3 receptor; Table 16): 399 |
| CSCC(=O)N(Cc1ccc(C(=O)NC[C@H](NC(=O)OCc2ccccc2)C(=O)O)cc1)Cc1nc2ccccc2[nH]1 [Example 5-23] | 5.5 nM | 22 |  |
| O=C(N[C@@H](CNC(=O)c1ccc(CN(Cc2nc3ccccc3[nH]2)C(=O)NS(=O)(=O)c2ccc(Cl)cc2)cc1)C(=O)O)OCc1ccccc1 [Example 5-44] | 19.6 nM | 66.3 |  |
| CCOC(=O)N(Cc1ccc(C(=O)NC[C@H](NC(=O)OCc2ccccc2)C(=O)O)cc1)Cc1nc2ccccc2[nH]1 [Example 5-20] | 7.2 nM | 15 |  |
| O=C(N[C@@H](CNC(=O)c1ccc(CN(Cc2nc3ccccc3[nH]2)C(=O)N2CCOCC2)cc1)C(=O)O)OCc1ccccc1 [Example 5-42] | 1.8 nM | 39 |  |
| O=C(NC(CNC(=O)c1ccc(CN(CCc2nc3ccccc3[nH]2)C(=O)CCc2ccccc2)cc1)C(=O)O)OCc1ccccc1 (stereo not shown) [Example 5-73] |  |  | IC50 ([1]; Table 14): 170 nM; Specificity αIIβ3 / αvβ3 (purified αllbβ3 receptor): 0.7 |
| CC(C)(C)NC(=O)N(Cc1ccc(C(=O)NC[C@H](NC(=O)OCc2ccccc2)C(=O)O)cc1)Cc1nc2ccccc2[nH]1 [Example 5-34] | 2.3 nM | 421 |  |
| COCC(=O)N(Cc1ccc(C(=O)NC[C@H](NC(=O)OCc2ccccc2)C(=O)O)cc1)C(C)c1nc2ccccc2[nH]1 (stereo partly shown) [Example 5-77] |  |  | IC50 ([1]; Table 15): 49 nM; SPECIFICITY αIIbβ3 / αvβ3 (purified αllbβ3 receptor; Table 15): 12.4 |
| CC(NC(=O)N(Cc1ccc(C(=O)NC[C@H](NC(=O)OCc2ccccc2)C(=O)O)cc1)Cc1nc2ccccc2[nH]1)c1cccc2ccccc12 (stereo partly shown) [Example 5-36] | 11.7 nM | 129 |  |
| CCCCOC(=O)N[C@@H](CNC(=O)c1ccc(CN(Cc2nc3ccccc3[nH]2)C(=O)NC2CCCCC2)cc1)C(=O)O [Example 5-82] |  |  | IC50 ([1]; Table 16): 2.2 nM; Specificity αllbβ3 / αvβ3 (purified αllbβ3 receptor; Table 16): 1259 |
| O=C(N[C@@H](CNC(=O)c1ccc(CN(Cc2nc3ccccc3[nH]2)C(=O)Nc2cccc3ccccc23)cc1)C(=O)O)OCc1ccccc1 [Example 5-37] | 5.3 nM | 203 |  |
| O=C(N[C@@H](CNC(=O)c1ccc(CN(Cc2nc3ccccc3[nH]2)C(=O)NCc2ccccc2)cc1)C(=O)O)OCc1ccccc1 [Example 5-29] | 4.3 nM | 144 |  |
| CCCCOC(=O)N[C@@H](CNC(=O)c1ccc(CN(Cc2nc3ccccc3[nH]2)C(=O)N[C@H](C(=O)OCC)C(C)C)cc1)C(=O)O [Example 5-90] |  |  | IC50 ([1]; Table 16): 2.6 nM; Specificity αllbβ3 / αvβ3 (purified αllbβ3 receptor; Table 16): 1697 |
| CCOC(=O)[C@@H](NC(=O)N(Cc1ccc(C(=O)NC[C@H](NC(=O)OCc2ccccc2)C(=O)O)cc1)Cc1nc2ccccc2[nH]1)C(C)C [Example 5-51] | 1.1 nM | 1210 |  |
| CC(C)C(=O)N(Cc1ccc(C(=O)NC[C@H](NC(=O)OCc2ccccc2)C(=O)O)cc1)Cc1nc2ccccc2[nH]1 [Example 5-13] | 3.1 nM | 38 |  |
